Laboratory results published in US8598079B2, “Active compound combinations” (priority 2010, dated 2013).

Key:
Phaedon cochleariae = Phaedon cochleariae larvae test; conditions: sprayed cabbage leaves
Pyrenophora teres = Pyrenophora teres test (in vitro)/microtitre plates; format: cell-based; conditions: 120 h, 5 days incubation, single active compound, read-out: % efficacy
Description: (§1) The microtest is carried out in microtitre plates using Potato Dextrose Broth (PDB) as liquid test medium. The active compounds are used as technical-grade a.i., dissolved in methanol. For inoculation, a spore suspension of Pyrenophora teres is used. After 5 days of incubation in the dark and with shaking (10 Hz), the transparency in each filled cavity of the microtitre plates is determined with the aid of a spectrophotometer.

Rhizoctonia solani = Rhizoctonia solani test (in vitro)/microtitre plates; format: cell-based; conditions: 168 h, 7 days incubation, single active compound, read-out: % efficacy
Description: as §1, with “acetone.” for “methanol.”, “mycelium” for “spore”, “Rhizoctonia solani” for “Pyrenophora teres”, “7” for “5”

SMILES | Kill in % after 3 d (Phaedon cochleariae; 4 ppm) [%] | Emax at 1 ppm (Pyrenophora teres) [%] | Emax at 0.3 ppm (Rhizoctonia solani) [%] | Kill in % after 3 d (Phaedon cochleariae; 200 ppm) [%] | Kill in % after 1 d (Phaedon cochleariae; 500 ppm) [%] | Kill in % after 1 d (Phaedon cochleariae; 100 ppm) [%]
CNC(=O)c1cc(Cl)cc(C)c1NC(=O)c1cc(Br)nn1-c1ncccc1Cl [Rynaxypyr, 3-bromo-N-[4-chloro-2-methyl-6-(methylcarbamoyl)phenyl]-1-(3-chloropyridin-2-yl)-1H-pyrazole-5-carboxamide] | 80 | 11 | – | – | – | –
Cc1nn(C)c(F)c1C(=O)Nc1ccccc1C(C)CC(C)C (centres unmarked) [penflufen, N-[2-(1,3-dimethylbutyl)phenyl]-5-fluoro-1,3-dimethyl-1H-pyrazole-4-carboxamide] | – | 26 | 20 | 0 | 0 | –
CC(c1ccc(C(F)(F)F)nc1)S(C)(=O)=NC#N (centres unmarked) [sulfoxaflor] | – | – | 0 | – | – | 25
